Biological target: T1, RORc ligand binding domain (Homo sapiens, UniProt P51449)
T1 sequence (P51449 269-508 limits assumed): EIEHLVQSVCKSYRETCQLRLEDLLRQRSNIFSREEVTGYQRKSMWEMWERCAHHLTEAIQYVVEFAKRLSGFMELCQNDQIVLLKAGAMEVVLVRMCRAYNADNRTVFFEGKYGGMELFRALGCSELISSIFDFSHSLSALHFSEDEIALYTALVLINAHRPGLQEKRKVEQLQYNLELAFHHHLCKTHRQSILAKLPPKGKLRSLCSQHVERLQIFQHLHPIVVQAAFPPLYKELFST
Assay: In Vitro RORc Ligand Binding Assay
Details: RORc IC50, radioligand 25-[3H]hydroxycholesterol 6 nM; 0.6 ug/mL RORc receptor; 3 h at 25° C.

| IC50 | SMILES |
| --- | --- |
| 4.1 nM | CC1(C)[C@H]2CC[C@]1(c1cncc(-c3nc(C4(O)CC4)n[nH]3)n1)c1nnc(-c3c(F)cccc3F)cc12 [Example 285, 1-(5-(6-((5R,8S)-3-(2,6-difluorophenyl)-9,9-dimethyl-5,6,7,8-tetrahydro-5,8-methanocinnolin-8-yl)pyrazin-2-yl)-1H-1,2,4-triazol-3-yl)cyclopropanol] |
| 10.6 nM | CC1(C)[C@H]2CC[C@]1(c1cncc(-c3nc([C@@H](O)CO)n[nH]3)n1)c1nnc(-c3c(F)cccc3F)cc12 [Example 286, (R)-1-(5-(6-((5R,8S)-3-(2,6-difluorophenyl)-9,9-dimethyl-5,6,7,8-tetrahydro-5,8-methanocinnolin-8-yl)pyrazin-2-yl)-1H-1,2,4-triazol-3-yl)ethane-1,2-diol] |
| 28 nM | CC1(C)[C@H]2CC[C@]1(c1cncc(-c3nc(C[C@H](O)CO)n[nH]3)n1)c1nnc(-c3c(F)cccc3F)cc12 [Example 293, (S)-3-(5-(6-((5R,8S)-3-(2,6-difluorophenyl)-9,9-dimethyl-5,6,7,8-tetrahydro-5,8-methanocinnolin-8-yl)pyrazin-2-yl)-1H-1,2,4-triazol-3-yl)propane-1,2-diol] |
| 23.3 nM | CC1(C)[C@H]2CC[C@]1(c1cncc(-c3nc(CS(C)(=O)=O)n[nH]3)n1)c1nnc(-c3c(F)cccc3F)cc12 [Example 294] |
| 15.2 nM | CC[C@H](O)c1n[nH]c(-c2cncc([C@@]34CC[C@@H](c5cc(-c6c(F)cccc6F)nnc53)C4(C)C)n2)n1 [Example 295, (S)-1-(5-(6-((5R,8S)-3-(2,6-difluorophenyl)-9,9-dimethyl-5,6,7,8-tetrahydro-5,8-methanocinnolin-8-yl)pyrazin-2-yl)-1H-1,2,4-triazol-3-yl)propan-1-ol] |
| 19.9 nM | C[C@H](O)Cc1n[nH]c(-c2cncc([C@@]34CC[C@@H](c5cc(-c6c(F)cccc6F)nnc53)C4(C)C)n2)n1 [Example 297, (S)-1-(5-(6-((5R,8S)-3-(2,6-difluorophenyl)-9,9-dimethyl-5,6,7,8-tetrahydro-5,8-methanocinnolin-8-yl)pyrazin-2-yl)-1H-1,2,4-triazol-3-yl)propan-2-ol] |
| 16.2 nM | CC1(C)[C@H]2CC[C@]1(c1cncc(-c3nc(CCO)n[nH]3)n1)c1nnc(-c3c(F)cccc3F)cc12 [Example 306, 2-(5-(6-((5R,8S)-3-(2,6-difluorophenyl)-9,9-dimethyl-5,6,7,8-tetrahydro-5,8-methanocinnolin-8-yl)pyrazin-2-yl)-1H-1,2,4-triazol-3-yl)ethanol] |
| 104 nM | CC1(C)[C@H]2CC[C@]1(c1cncc(-c3nc([C@@H](O)C(F)(F)F)n[nH]3)n1)c1nnc(-c3c(F)cccc3F)cc12 [Example 308, (R)-1-(5-(6-((5R,8S)-3-(2,6-difluorophenyl)-9,9-dimethyl-5,6,7,8-tetrahydro-5,8-methanocinnolin-8-yl)pyrazin-2-yl)-1H-1,2,4-triazol-3-yl)-2,2,2-trifluoroethanol] |
| 88.4 nM | CC1(C)[C@H]2CC[C@]1(c1cncc(-c3nc([C@H](O)C(F)(F)F)n[nH]3)n1)c1nnc(-c3c(F)cccc3F)cc12 [Example 309, (S)-1-(5-(6-((5R,8S)-3-(2,6-difluorophenyl)-9,9-dimethyl-5,6,7,8-tetrahydro-5,8-methanocinnolin-8-yl)pyrazin-2-yl)-1H-1,2,4-triazol-3-yl)-2,2,2-trifluoroethanol] |
| 73.5 nM | CC1(C)[C@H]2CC[C@]1(c1cccc(-c3nc(CCO)n[nH]3)n1)c1nnc(-c3c(F)cccc3F)cc12 [Example 310, 2-(5-(6-((5R,8S)-3-(2,6-difluorophenyl)-9,9-dimethyl-5,6,7,8-tetrahydro-5,8-methanocinnolin-8-yl)pyridin-2-yl)-1H-1,2,4-triazol-3-yl)ethanol] |
| 71.1 nM | C[C@@H](O)Cc1n[nH]c(-c2cccc([C@@]34CC[C@@H](c5cc(-c6c(F)cccc6F)nnc53)C4(C)C)n2)n1 [Example 311, (R)-1-(5-(6-((5R,8S)-3-(2,6-difluorophenyl)-9,9-dimethyl-5,6,7,8-tetrahydro-5,8-methanocinnolin-8-yl)pyridin-2-yl)-1H-1,2,4-triazol-3-yl)propan-2-ol] |
| 62.7 nM | C[C@H](O)Cc1n[nH]c(-c2cccc([C@@]34CC[C@@H](c5cc(-c6c(F)cccc6F)nnc53)C4(C)C)n2)n1 [Example 312, (S)-1-(5-(6-((5R,8S)-3-(2,6-difluorophenyl)-9,9-dimethyl-5,6,7,8-tetrahydro-5,8-methanocinnolin-8-yl)pyridin-2-yl)-1H-1,2,4-triazol-3-yl)propan-2-ol] |

Second part, the molecule before the results:

| SMILES | IC50 |
| --- | --- |
| CC(C)(O)c1coc(-c2ccnc([C@@]34CC[C@@H](c5cc(-c6c(F)cccc6F)nnc53)C4(C)C)n2)n1 [Example 281, 2-(2-(2-((5R,8R)-3-(2,6-difluorophenyl)-9,9-dimethyl-5,6,7,8-tetrahydro-5,8-methanocinnolin-8-yl)pyrimidin-4-yl)oxazol-4-yl)propan-2-ol] | 14.9 nM |
| COC(=O)c1ccn(-c2nccc([C@@]34CC[C@@H](c5cc(-c6c(F)cccc6F)nnc53)C4(C)C)n2)n1 [Example 282] | 4.9 nM |
| CC1(C)[C@H]2CC[C@]1(c1nc(-c3nc(C(N)=O)no3)ncc1F)c1nnc(-c3c(F)cccc3F)cc12 [Example 283] | 11.6 nM |
| CC1(C)[C@H]2CC[C@]1(c1nccc(-n3ccc(CO)n3)n1)c1nnc(-c3c(F)cccc3F)cc12 [Example 284, (1-(2-((5R,8R)-3-(2,6-difluorophenyl)-9,9-dimethyl-5,6,7,8-tetrahydro-5,8-methanocinnolin-8-yl)pyrimidin-4-yl)-1H-pyrazol-3-yl)methanol] | 27.6 nM |
| CC1(C)[C@H]2CC[C@]1(c1nc(-n3ccc(CO)n3)ncc1F)c1nnc(-c3c(F)cccc3F)cc12 [Example 287] | 12.1 nM |
| CC1(C)[C@H]2CC[C@]1(c1nc(-c3nc(CO)no3)ncc1F)c1nnc(-c3c(F)cccc3F)cc12 [Example 288, (5-(4-((5R,8S)-3-(2,6-difluorophenyl)-9,9-dimethyl-5,6,7,8-tetrahydro-5,8-methanocinnolin-8-yl)-5-fluoropyrimidin-2-yl)-1,2,4-oxadiazol-32-(1-(4-((5R,8S)-3-(2,6-difluorophenyl)-9,9-dimethyl-5,6,7,8-tetrahydro-5,8-methanocinnolin-8-yl)pyrimidin-2-yl)-1H-pyrazol-3-yl)propan-2-ol-yl)methanol] | 20.3 nM |
| CC1(C)[C@H]2CC[C@]1(c1ccnc(-c3ccc(=O)[nH]c3)n1)c1nnc(-c3c(F)cccc3F)cc12 [Example 289] | 15.1 nM |
| CC(C)(O)c1ccn(-c2nccc([C@@]34CC[C@@H](c5cc(-c6c(F)cccc6F)nnc53)C4(C)C)n2)n1 [Example 290] | 33.5 nM |
| CC1(C)[C@H]2CC[C@]1(c1ccnc(-n3ccc(C(N)=O)n3)n1)c1nnc(-c3c(F)cccc3F)cc12 [Example 291] | 34.3 nM |
| CC(C)(O)c1nc(-c2ncc(Cl)c([C@@]34CC[C@@H](c5cc(-c6c(F)cccc6F)nnc53)C4(C)C)n2)no1 [Example 292] | 13.9 nM |
| CC1(C)[C@H]2CC[C@]1(c1cncc(C3=NNC(=O)CN3)n1)c1nnc(-c3c(F)cccc3F)cc12 [Example 296, 3-(6-((5R,8S)-3-(2,6-difluorophenyl)-9,9-dimethyl-5,6,7,8-tetrahydro-5,8-methanocinnolin-8-yl)pyrazin-2-yl)-4,5-dihydro-1,2,4-triazin-6(1H)-one] | 20.9 nM |
| Cc1n[nH]cc1-c1nccc([C@@]23CC[C@@H](c4cc(-c5c(F)cccc5F)nnc42)C3(C)C)n1 [Example 298] | 5.7 nM |
| CC1(C)[C@H]2CC[C@]1(c1ccnc(N3CC(C(N)=O)C3)n1)c1nnc(-c3c(F)cccc3F)cc12 [Example 299] | 24.1 nM |
| CC1(C)[C@H]2CC[C@]1(c1ccnc(-n3ccc(CC(N)=O)n3)n1)c1nnc(-c3c(F)cccc3F)cc12 [Example 300] | 12.2 nM |
| CC(C)(O)c1nc(-c2cncc([C@@]34CC[C@@H](c5cc(-c6c(F)cccc6F)nnc53)C4(C)C)n2)c[nH]1 [Example 301, 2-(4-(6-((5R,8S)-3-(2,6-difluorophenyl)-9,9-dimethyl-5,6,7,8-tetrahydro-5,8-methanocinnolin-8-yl)pyrazin-2-yl)-1H-imidazol-2-yl)propan-2-ol] | 13.6 nM |
| CC1(C)[C@H]2CC[C@]1(c1nccc(-c3ccn[nH]3)n1)c1nnc(-c3c(F)cccc3F)cc12 [Example 302, (5R,8R)-8-(4-(1H-pyrazol-5-yl)pyrimidin-2-yl)-3-(2,6-difluorophenyl)-9,9-dimethyl-5,6,7,8-tetrahydro-5,8-methanocinnoline] | 9.9 nM |
| CC1(C)[C@H]2CC[C@]1(c1ccnc(-n3ccc(=O)[nH]3)n1)c1nnc(-c3c(F)cccc3F)cc12 [Example 303] | 15 nM |
| CC(C)(O)c1cc(-c2cccc([C@@]34CC[C@@H](c5cc(-c6c(F)cccc6F)nnc53)C4(C)C)n2)[nH]n1 [Example 304, 2-(5-(6-((5R,8S)-3-(2,6-difluorophenyl)-9,9-dimethyl-5,6,7,8-tetrahydro-5,8-methanocinnolin-8-yl)pyridin-2-yl)-1H-pyrazol-3-yl)propan-2-ol] | 9.4 nM |
| CC1(C)[C@H]2CC[C@]1(c1ccnc(-n3cnc(N)n3)n1)c1nnc(-c3c(F)cccc3F)cc12 [Example 305] | 19.6 nM |
| CC(C)(O)C1CN(c2nccc([C@@]34CC[C@@H](c5cc(-c6c(F)cccc6F)nnc53)C4(C)C)n2)C1 [Example 307] | 13.5 nM |
| CC1(C)[C@H]2CC[C@]1(c1cccc(-c3cc(CO)n[nH]3)n1)c1nnc(-c3c(F)cccc3F)cc12 [Example 313, (5-(6-((5R,8S)-3-(2,6-difluorophenyl)-9,9-dimethyl-5,6,7,8-tetrahydro-5,8-methanocinnolin-8-yl)pyridin-2-yl)-1H-pyrazol-3-yl)methanol] | 1.6 nM |

Source: patent US10487068B2, “Pyridazine derivatives as RORc modulators” (Genentech, Inc., priority 2015, dated 2019)
